Measured values as given in publication PMC9147171, “Pharmacokinetic/Pharmacodynamic Evaluation of a New Purine-2,6-Dione Derivative in Rodents with Experimental Autoimmune Diseases” (Pharmaceutics, 2022).

Tested on: collagen-induced arthritis (CIA) in rats
Assay: Collagen-induced arthritis (CIA) in rats, PK/PD arthritis progression model
Assay type: in vivo, female Lewis rats
Method: Female Lewis rats were subcutaneously injected at the base of the tail with the emulsion prepared according to the protocol supplied by Chondrex, Inc. (Redmond, WA, USA) at days 0 and 7 of the experiment. To obtain the emulsion, porcine collagen type II (Chondrex, Inc.) (2 mg/mL) in 0.05 M acetic acid was emulsified with incomplete Freund’s adjuvant (Sigma-Aldrich, St. Louis, MO, USA) using a homogenizer with a small blade (LabGen 125, Cole-Parmer, Vernon Hills, IL, USA). On day 20, the animals that developed symptoms of arthritis, i.e., paw swelling above 150% of day 0, were randomly divided into two groups: the control group receiving vehicle alone (n = 6) and the study group treated with the investigated compound at a dose of 20 mg·kg^−1, IP once daily for 21 days (n = 6). Relative paw edema of arthritic rats was measured using a digital caliper according to the procedure described by Earp et al. up to 40 days after the first immunization and then the animals were sacrificed. In addition, the body weight of animals was monitored. After randomization on day 20, using the Mann–Whitney U test, it was verified that there is no significant difference in paw size between the groups.
A previously developed PK/PD model of arthritis progression in rats was utilized in this study (Figure 2). The model was described in detail in our previous publication. Originally, this model was used to assess and compare the effects of a PDE4-selective inhibitor rolipram and two non-selective PDE inhibitors, namely GRMS-55 and lisofylline in CIA in female Lewis rats.
Briefly, the model assumes that PDE inhibitors act by suppressing the production of a precursor of arthritis progression. This is in line with the actual mechanism of anti-inflammatory action of PDE inhibitors that exert their effects by inhibiting the transcription of pro-inflammatory mediators, which participate in the arthritis development. […] Therefore, it was feasible to compare the potency of compound 34 and other PDE inhibitors that were evaluated in our previous study. […]

Cn1c(=O)c2c(nc(NCCc3ccccc3)n2CCCC(=O)NN=Cc2ccc(O)c(O)c2O)n(C)c1=O [Compound 34, 4-(1,3-dimethyl-2,6-dioxo-8-(phenethylamino)-2,3,6,7-tetrahydro-1H-purin-7-yl)-N′-(2,3,4-trihydroxybenzylidene)butanehydrazide]
Relative body weight, experimental vs control group (20 mg·kg^−1 IP once daily for 21 days): not significantly different
IC50_Paw in suppressing paw edema, times lower than that for rolipram (PK/PD model, rolipram value from ref 28): 10 times
IC50_Paw, times lower than that for GRMS-55 (same PK/PD model, GRMS-55 value from ref 28): around 260 times
